Measured values taken from patent EP3319959B1, “HETERO-HALO INHIBITORS OF HISTONE DEACETYLASE” (Alkermes, Inc., priority 2015, dated 2017).

Experiments:
HDAC2 [1] = molecular target: T1, HDAC2 (Homo sapiens, UniProt Q92769); experiment: Reporter displacement assay (HDAC2); assay type: binding; details: 20 nM HDAC2, 180 nM reporter probe, read after 4 hours; Kd by Cheng Prusoff equation
T1 construct: purchased Proteros
Description: HDAC2 containing a C-terminal HIS-Tag (Proteros) and fluorescently-labeled anti-HIS-antibody are diluted in one vial in assay buffer 50 mM Tris, pH 8.0, 1 mM DTT, 150 mM NaCl, and 0.01% Tween20. Components are pre-incubated for 30 min, then a small volume of reporter probe (Proteros) is added from a highly concentrated stock and incubation is continued for another 30 min. […] Ten µl/well of pre-formed complex are transferred into 384 well assay plates (Corning). Compounds to be profiled are serially diluted from 1x10^1 - 5.7x10^-5 mM in DMSO and 60 nl are added to assay plates by pintool transfer (CybiWell, Cybio). Fluorescence intensity signal is read after 4 hours in a Pherastar FS (BMG Labtech) at 337/665 nm. For Kd determination, percent probe displacement values are calculated for each compound concentration and plotted against the compound concentration. […] Since the reporter probe is used at a concentration reflecting its own Kd value, compound Kd values can be calculated according to the Cheng Prusoff equation. […] Table 4. HDAC1 and HDAC2 Kd Values for Exemplary Compounds Useful in the Invention

HDAC1 = HDAC1 (Homo sapiens, UniProt Q13547); experiment: Reporter displacement assay (HDAC1); assay type: binding
Sequence of HDAC1 (Q13547 whole entry): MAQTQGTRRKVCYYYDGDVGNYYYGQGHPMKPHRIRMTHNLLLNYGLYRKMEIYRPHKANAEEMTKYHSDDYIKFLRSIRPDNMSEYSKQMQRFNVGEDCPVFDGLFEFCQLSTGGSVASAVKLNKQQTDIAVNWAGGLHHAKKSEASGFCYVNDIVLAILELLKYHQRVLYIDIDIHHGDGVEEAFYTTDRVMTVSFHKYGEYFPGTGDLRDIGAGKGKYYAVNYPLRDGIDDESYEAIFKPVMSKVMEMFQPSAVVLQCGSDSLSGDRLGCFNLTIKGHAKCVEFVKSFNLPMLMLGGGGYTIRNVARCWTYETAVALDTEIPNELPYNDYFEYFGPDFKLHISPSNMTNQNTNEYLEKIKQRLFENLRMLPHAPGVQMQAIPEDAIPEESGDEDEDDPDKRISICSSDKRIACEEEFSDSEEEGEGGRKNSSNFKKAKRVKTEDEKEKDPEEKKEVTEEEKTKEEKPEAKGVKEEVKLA

HDAC2 [2] = molecular target: T1, HDAC2; experiment: Reporter displacement assay (HDAC2); assay type: binding
recombinant human HDACs = experiment: HDAC enzymatic assay (LabChip capillary electrophoresis); assay type: biochemical; details: 5 nM HDAC enzyme, 1 uM substrate, 5 hours pre-incubation, 17 hours reaction at 25°C; isoform not given
How it was run: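 Recombinant human HDAC (5 nM) was pre-incubated with compound for 5 h at 25 °C, then reacted with 1 µM FAM-TSRHK(Ac)KL substrate for 17 h at 25 °C in HEPES pH 7.5, 1% DMSO. Reactions were stopped with SDS, and substrate and product were separated by capillary electrophoresis and read as P/(S+P). IC50 was fitted by 4-parameter logistic from 12-point 3-fold dilutions starting at 30 µM, run in duplicate.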

SH-SY5Y cells = experiment: Cell assay in SH-SY5Y cells with HDAC-Glo 2 reagent; assay type: cell-based; details: Homo sapiens, 5 h, five hours at 37°C, CI-994 at 100 uM defined as 100% inhibition
Description: SH-SY5Y cells (Sigma) were cultured in Eagle's Modified Essential Medium supplemented with 10% fetal bovine serum and pen/strep. Twenty-four hours prior to compound dosing 20 uL of cells were plated in white 384 well plates at a density of 1,500 cells/well. Compounds were serially diluted in neat DMSO and then diluted 1:100 v/v into media without FBS and mixed. Media was removed from the plated cells and the diluted compounds in serum free media (1% v/v final DMSO) were added and incubated at 37°C for five hours. Ten uL of HDAC-Glo 2 reagent with 0.1% Triton X-100 was then added, the plate was mixed and allowed to develop at room temperature for 100 minutes. Plates were then read with a Spectramax LMax luminometer employing a 0.4s integration time. Dose response curves were constructed with normalized data where CI-994 at 100 uM was defined as 100% inhibition and DMSO alone as 0% inhibition. Table 5. IC50 and EC50 Values for Exemplary Compounds Useful in the Invention

T1 sequence (Q92769 whole entry): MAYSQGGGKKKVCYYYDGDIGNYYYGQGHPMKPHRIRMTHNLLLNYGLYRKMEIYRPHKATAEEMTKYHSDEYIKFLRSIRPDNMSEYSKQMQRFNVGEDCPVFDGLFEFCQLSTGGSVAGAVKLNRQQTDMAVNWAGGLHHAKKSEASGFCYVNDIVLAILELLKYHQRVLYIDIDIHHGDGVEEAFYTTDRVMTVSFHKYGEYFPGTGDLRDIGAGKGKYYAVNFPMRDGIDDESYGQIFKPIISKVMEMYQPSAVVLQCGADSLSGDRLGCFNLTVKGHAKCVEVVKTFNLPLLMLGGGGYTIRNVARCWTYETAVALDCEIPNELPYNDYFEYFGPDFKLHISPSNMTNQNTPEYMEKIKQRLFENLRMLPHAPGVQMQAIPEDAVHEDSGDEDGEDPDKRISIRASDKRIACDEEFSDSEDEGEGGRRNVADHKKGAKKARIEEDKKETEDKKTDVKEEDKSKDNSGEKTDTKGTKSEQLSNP

Structure (SMILES) | Kd (HDAC2 [1]) | Kd (HDAC1) | residence time (HDAC1) | residence time (HDAC2 [2]) | IC50 (recombinant human HDACs) | EC50 (SH-SY5Y cells)
Nc1ccc(-c2ccc(F)cc2)c(F)c1NC(=O)N1CCCC1 [Compound 112] | 100 to 500 nM | 100 to 500 nM | 329 min | 790 min | – | –
Nc1cnc(-c2ccc(F)cc2)cc1NC(=O)N1CCCC1 [Compound 105] | 500 to 5000 nM | 500 to 5000 nM | 851 min | 634 min | – | –
Nc1cc(F)c(-c2ccc(F)cc2)cc1NC(=O)N1CCCC1 [Compound 114] | > 5000 nM | > 5000 nM | 49 min | – | – | –
Nc1cc(F)c(-c2ccc(F)cc2)cc1NC(=O)C1CCOCC1 [Compound 115] | 500 to 5000 nM | > 5000 nM | – | 185 min | – | –
Nc1cc(F)c(-c2ccc(F)c(F)c2)cc1NC(=O)N1CCCC1 [Compound 116] | 500 to 5000 nM | 500 to 5000 nM | 87 min | 114 min | – | –
Nc1ccc(-c2ccncc2)nc1NC(=O)N1CCCC1 [Compound 111] | > 5000 nM | > 5000 nM | 151 min | 540 min | – | –
Nc1nn(-c2ccccc2)cc1NC(=O)N1Cc2ccncc2C1 [Compound 101] | > 5000 nM | > 5000 nM | – | – | – | –
Nc1ccc(-c2ccc(F)cc2)nc1NC(=O)C1CCOCC1 [Compound 109] | 500 to 5000 nM | > 5000 nM | 14 min | 264 min | – | –
Nc1cnc(-c2ccc(F)cc2)nc1NC(=O)N1CCCC1 [Compound 110] | > 5000 nM | 500 to 5000 nM | 688 min | – | – | –
Nc1cc(F)c(-c2ccc(F)cc2)cc1NC(=O)N1Cc2ccncc2C1 [Compound 100] | 100 to 500 nM | 100 to 500 nM | 196 min | 703 min | – | –
Nc1cn(-c2ccccc2)nc1NC(=O)N1Cc2ccncc2C1 [Compound 122] | 100 to 500 nM | 100 to 500 nM | 572 min | 2380 min | – | –
Nc1ccc(-c2ccc(F)c(F)c2)c(F)c1NC(=O)N1CCCC1 [Compound 117] | > 5000 nM | > 5000 nM | – | 42 min | – | –
Nc1ncc(-c2ccc(F)cc2)cc1NC(=O)N1CC2CCCC2C1 (centres unmarked) [Compound 104] | > 5000 nM | > 5000 nM | – | – | – | –
Nc1ccc(-c2ccc(F)cc2)c(F)c1NC(=O)N1Cc2nccnc2C1 [Compound 113] | 100 to 500 nM | < 100 nM | 350 min | 609 min | – | –
Nc1ccc(-c2ccc(F)cc2)c(F)c1NC(=O)C1CCOCC1 [Compound 118] | 500 to 5000 nM | 500 to 5000 nM | 69 min | 176 min | – | –
Nc1nn(-c2ccc(F)cc2)cc1NC(=O)N1Cc2ccncc2C1 [Compound 102] | > 5000 nM | > 5000 nM | – | – | – | –
Nc1cnc(-c2ccc(F)cc2)nc1NC(=O)N1Cc2nccnc2C1 [Compound 121] | > 5000 nM | 500 to 5000 nM | 682 min | 1200 min | – | –
Nc1ccc(-c2ccc(F)cc2)nc1NC(=O)N1CCCC1 [Compound 107] | 500 to 5000 nM | 500 to 5000 nM | 653 min | 1280 min | – | –
Nc1cc(F)c(-c2ccc(F)cc2)cc1NC(=O)N1Cc2nccnc2C1 [Compound 119] | 100 to 500 nM | 100 to 500 nM | 126 min | 1200 min | – | –
Nc1cnc(-c2ccc(F)cc2)cc1NC(=O)C1CCOCC1 [Compound 106] | > 5000 nM | > 5000 nM | 121 min | – | – | –
Nc1nn(-c2ccncc2)cc1NC(=O)N1Cc2ccncc2C1 [Compound 103] | > 5000 nM | > 5000 nM | – | – | – | –
Nc1ccc(-c2ccc(F)cc2)nc1NC(=O)N1Cc2nccnc2C1 [Compound 120] | 500 to 5000 nM | 100 to 500 nM | 830 min | 1170 min | – | –
Nc1cnc(-c2ccncc2)cc1NC(=O)N1CCCC1 [Compound 108] | 500 to 5000 nM | 500 to 5000 nM | 401 min | 1430 min | – | –
CN1CCC(N2C[C@@H]3[C@H](C2)[C@H]3C(=O)Nc2nc(-c3ccc(F)cc3)ccc2N)CC1 (stereo in doubt) [Compound 263] | – | – | – | – | 500 to 5000 nM | 500 to 5000 nM
Nc1ccc(-c2ccc(F)cc2)nc1NC(=O)N1Cc2cccnc2C1 [Compound 397] | – | – | – | – | 100 to 500 nM | 100 to 500 nM
Nc1ccc(-c2ccc(F)cc2)nc1NC(=O)N1C[C@@H]2[C@@H](CN3CCC3)[C@@H]2C1 [Compound 270] | – | – | – | – | > 5000 nM | > 5000 nM
Nc1ccc(-c2cccs2)nc1NC(=O)N1Cc2nccnc2C1 [Compound 156] | – | – | – | – | 100 to 500 nM | 100 to 500 nM
Nc1ccc(-c2ccc(F)cc2)nc1NC(=O)N1Cc2cc(CN3CCCC3)cnc2C1 [Compound 155] | – | – | – | – | 100 to 500 nM | 100 to 500 nM
